Eleven compounds from PubChem BioAssay AID652064 (Molecular Libraries Program, Specialized Chemistry Center, …, 2013) can be followed below.

The source made the active and inactive calls. How the calls were made is not given here. Bounds are passed on as bounds.

This assay concerns human cells, XBP1 mRNA qRT-PCR. In words: compound effect on XBP1 transcript levels – cell-based, quantitative RT-PCR, medium throughput (AID 652064).

Turning to `CC(C)(C)c1ccc(-c2noc(CCC(N)=O)n2)cc1`, the IC50 was > 20 µM (inactive). Take `Cc1cc(C(=O)COC(=O)c2ccccc2O)c(C)n1Cc1cccs1`: the IC50 was 8.67 µM (inactive). As to `CCOc1ccc(-c2nc(CSCC(=O)NCc3ccco3)c(C)o2)cc1`, the IC50 is 7.45 µM (inactive). As for `C=CCn1c(C)cc(C2=NN=C(NCC)SC2)c1C`, the IC50 was 6.85 µM (inactive). `Cc1ccc(NC(=O)c2cc3ccccc3oc2=O)cc1S(=O)(=O)N(C)C`: the IC50 was > 20 µM (inactive). Consider `CCN=C1NN=C(c2cc(C)n(Cc3ccco3)c2C)CS1`, for which the IC50 was 10.2 µM (inactive).

For the compound `Cc1cc(C2=NNC(=NC3CC3)SC2)c(C)n1-c1ccccc1`, the IC50 was 4.78 µM (inactive). In the case of `Cc1ccc(NC(=O)O/N=C/c2c(C)nn(C(C)(C)C)c2C)cc1Cl`, the IC50 was 10.1 µM (inactive).

Turning to `Cc1nn(C(C)(C)C)c(C)c1/C=N/OC(=O)Nc1ccc(Cl)cc1`, the IC50 is 20.1 µM (inactive).

`CC(C)(C)c1ccc(C(=O)Nc2ccc(CC(=O)O)cc2)o1`: the IC50 was > 20 µM (inactive). The result for `Cc1cc(C2=NNC(=NC3CC3)SC2)c(C)n1-c1ccccc1F` reads 6.31 µM (inactive).

As a reminder, the IC50 is the concentration that gives 50% inhibition.
